Where a name gives a salt, the structure may show the parent alone.
target: T1, PDE4B (human recombinant) (Homo sapiens, UniProt Q07343); test: PDE4B inhibition, fluorescence polarisation (FP) and/or SPA assay; type: biochemical; conditions: n=1 or average of 2 or more readings, accuracy ±about 0.5 log unit, read-out: PDE4B pIC50 (generally in FP assay) (±about 0.5) (converted)
T1 construct: made in house
Source text: Human recombinant PDE4B, in particular the 2B splice variant thereof (HSPDE4B2B), is disclosed in WO 94/20079 and also M. M. McLaughlin et al., “A low Km, rolipram-sensitive, cAMP-specific phosphodiesterase from human brain: cloning and expression of cDNA, biochemical characterisation of recombinant protein, and tissue distribution of mRNA”, J. Biol. Chem., 1993, 268, 6470-6476. For example, in Example 1 of WO 94/20079, human recombinant PDE4B is described as being expressed in the PDE-deficient yeast Saccharomyces cerevisiae strain GL62, e.g. after induction by addition of 150 uM CuSO4, and 100,000×g supernatant fractions of yeast cell lysates are described for use in the harvesting of PDE4B enzyme.
The ability of compounds to inhibit catalytic activity at PDE4B or 4D (human recombinant), PDE3 (from bovine aorta), PDE5 (human recombinant) or PDE6 (from bovine retina) can optionally be determined by Scintillation Proximity Assay (SPA) in a 96-well format.
Test compounds (as a solution in DMSO, preferably about 2 microliter (ul) volume of DMSO solution) are preincubated at ambient temperature (room temperature, e.g. 19-23° C.) in Wallac Isoplates (code 1450-514) with PDE enzyme in 50 mM Tris-HCl buffer pH 7.5, 8.3 mM MgCl2, 1.7 mM EGTA, 0.05% (w/v) bovine serum albumin for 10-30 minutes (usually 30 minutes). The enzyme concentration is adjusted so that no more than 20% hydrolysis of the substrate defined below occurs in control wells without compound, during the incubation. For the PDE3, PDE4B and PDE4D assays, [5′,8-3H]Adenosine 3′,5′-cyclic phosphate (Amersham Pharmacia Biotech, code TRK.559; or Amersham Biosciences UK Ltd, Pollards Wood, Chalfont St Giles, Buckinghamshire HP8 4SP, UK) is added to give 0.05 uCi per well and about 10 nM final concentration. For the PDE5 and PDE6 assays, [8-^3H]Guanosine 3′,5′-cyclic phosphate (Amersham Pharmacia Biotech, code TRK.392) is added to give 0.05 uCi per well and about 36 nM final concentration. Plates containing assay mixture, preferably approx. 100 ul volume of assay mixture, are mixed on an orbital shaker for 5 minutes and incubated at ambient temperature for 1 hour. Phosphodiesterase SPA beads (Amersham Pharmacia Biotech, code RPNQ 0150) are added (about 1 mg per well) to terminate the assay. Plates are sealed and shaken and allowed to stand at ambient temperature for 35 minutes to 1 hour (preferably 35 minutes) to allow the beads to settle. Bound radioactive product is measured using a WALLAC TRILUX 1450 Microbeta scintillation counter. For inhibition curves, 10 concentrations (e.g. 1.5 nM-30 uM) of each compound are assayed. Curves are analysed using ActivityBase and XLfit (ID Business Solutions Limited, 2 Ocean Court, Surrey Research Park, Guildford, Surrey GU2 7QB, United Kingdom) Results are expressed as pIC50 values.
The ability of compounds to inhibit catalytic activity at PDE4B (human recombinant) or PDE4D (human recombinant) can optionally be determined by IMAP Fluorescence Polarisation (FP) assay (IMAP Explorer kit, available from Molecular Devices Corporation, Sunnydale, Calif., USA; Molecular Devices code: R8062) in 384-well format.
The IMAP FP assay is able to measure PDE activity in an homogenous, non-radioactive assay format. The FP assay uses the ability of immobilised trivalent metal cations, coated onto nanoparticles (tiny beads), to bind the phosphate group of FI-AMP that is produced on the hydrolysis of fluorescein-labelled (FI) cyclic adenosine mono-phosphate (FI-cAMP) to the non-cyclic FI-AMP form. […] Binding of FI-AMP product to the beads (coated with the immobilised trivalent cations) slows the rotation of the bound FI-AMP and leads to an increase in the fluorescence polarisation ratio of parallel to perpendicular light. Inhibition of the PDE reduces/inhibits this signal increase. […]

T1 sequence (Q07343 1-564 isoform Q07343-2): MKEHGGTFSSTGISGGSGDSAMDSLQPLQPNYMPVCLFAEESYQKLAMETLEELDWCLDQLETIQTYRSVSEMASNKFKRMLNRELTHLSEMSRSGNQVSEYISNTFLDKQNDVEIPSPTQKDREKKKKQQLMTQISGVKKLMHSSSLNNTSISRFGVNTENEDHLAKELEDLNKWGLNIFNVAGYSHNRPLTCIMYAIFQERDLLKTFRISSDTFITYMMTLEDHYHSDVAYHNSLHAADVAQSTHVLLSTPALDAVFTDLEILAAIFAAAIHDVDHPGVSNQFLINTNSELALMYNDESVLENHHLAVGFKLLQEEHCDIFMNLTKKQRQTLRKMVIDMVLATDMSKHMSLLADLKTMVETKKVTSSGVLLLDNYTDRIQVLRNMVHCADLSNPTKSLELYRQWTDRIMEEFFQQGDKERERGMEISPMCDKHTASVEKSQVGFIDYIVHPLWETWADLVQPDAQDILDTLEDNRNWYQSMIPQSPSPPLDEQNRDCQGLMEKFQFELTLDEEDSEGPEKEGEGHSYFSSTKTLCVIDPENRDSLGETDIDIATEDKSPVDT

Row | Compound | IC50
1 | CCc1nc2c(cnn2CC)c(NC2CCN(C(N)=O)CC2)c1CNC(=O)CC(C)(C)CC(=O)NCc1c(CC)nc2c(cnn2CC)c1NC1CCN(C(N)=O)CC1 [Example 19, N,N′-bis[(4-{[1-(aminocarbonyl)-4-piperidinyl]amino}-1,6-diethyl-1H-pyrazolo[3,4-b]pyridin-5-yl)methyl]-3,3-dimethylpentanediamide trifluoroacetate] | 0.0158 to 0.1 nM
2 | CCc1nc2c(cnn2CC)c(NC2CCN(C(N)=O)CC2)c1CNC(=O)C1CCC(C(=O)NCc2c(CC)nc3c(cnn3CC)c2NC2CCN(C(N)=O)CC2)C1 (stereo not shown) [Example 20, N,N′-bis[(4-{[1-(aminocarbonyl)-4-piperidinyl]amino}-1,6-diethyl-1H-pyrazolo[3,4-b]pyridin-5-yl)methyl]-1,3-cyclopentanedicarboxamide trifluoroacetate] | 0.0158 to 0.1 nM
3 | CCc1nc2c(cnn2CC)c(NC2CCOCC2)c1CNC(=O)c1ccc(C(=O)NCc2c(CC)nc3c(cnn3CC)c2NC2CCOCC2)cc1 [Example 22, N,N′-bis{[1,6-diethyl-4-(tetrahydro-2H-pyran-4-ylamino)-1H-pyrazolo[3,4-b]pyridin-5-yl]methyl}-1,4-benzenedicarboxamide] | 0.126 to 1 nM
4 | CCc1nc2c(cnn2CC)c(NC2CCOCC2)c1CNC(=O)c1ccc(Oc2ccc(C(=O)NCc3c(CC)nc4c(cnn4CC)c3NC3CCOCC3)cc2)cc1 [Example 24, 4,4′-oxybis(N-{[1,6-diethyl-4-(tetrahydro-2H-pyran-4-ylamino)-1H-pyrazolo[3,4-b]pyridin-5-yl]methyl}benzamide)] | 0.126 to 1 nM
5 | CCc1nc2c(cnn2CC)c(NC2CCN(C(N)=O)CC2)c1CNC(=O)c1ccc(C(=O)NCc2c(CC)nc3c(cnn3CC)c2NC2CCN(C(N)=O)CC2)cc1 [Example 25, N,N′-bis[(4-{[1-(aminocarbonyl)-4-piperidinyl]amino}-1,6-diethyl-1H-pyrazolo[3,4-b]pyridin-5-yl)methyl]-1,4-benzenedicarboxamide] | 0.0158 to 0.1 nM
6 | CCc1nc2c(cnn2CC)c(NC2CCN(C(N)=O)CC2)c1CNC(=O)c1ccc(-c2ccc(C(=O)NCc3c(CC)nc4c(cnn4CC)c3NC3CCN(C(N)=O)CC3)cc2)cc1 [Example 26, N,N′-bis[(4-{[1-(aminocarbonyl)-4-piperidinyl]amino}-1,6-diethyl-1H-pyrazolo[3,4-b]pyridin-5-yl)methyl]-4,4′-biphenyldicarboxamide] | 0.0158 to 0.1 nM
7 | CCc1nc2c(cnn2CC)c(NC2CCN(C(N)=O)CC2)c1CNC(=O)c1ccc(Oc2ccc(C(=O)NCc3c(CC)nc4c(cnn4CC)c3NC3CCN(C(N)=O)CC3)cc2)cc1 [Example 27, 4,4′-{oxybis[benzene-4,1-diyl(oxomethanediyl)iminomethanediyl(1,6-diethyl-1H-pyrazolo[3,4-b]pyridine-5,4-diyl)imino]}di(1-piperidinecarboxamide)] | 0.0158 to 0.1 nM

Further lines, results first:

Row | IC50 | Compound
8 | 0.0158 to 0.1 nM | CCc1nc2c(cnn2CC)c(NC2CCOCC2)c1CNC(=O)c1ccnc(-c2cc(C(=O)NCc3c(CC)nc4c(cnn4CC)c3NC3CCOCC3)ccn2)c1 [Example 31, N,N′-bis{[1,6-diethyl-4-(tetrahydro-2H-pyran-4-ylamino)-1H-pyrazolo[3,4-b]pyridin-5-yl]methyl}-2,2′-bipyridine-4,4′-dicarboxamide]
9 | 0.126 to 1 nM | CCc1nc2c(cnn2CC)c(NC2CCOCC2)c1CNC(=O)c1cnc(C(=O)NCc2c(CC)nc3c(cnn3CC)c2NC2CCOCC2)cn1 [Example 32, N,N′-bis{[1,6-diethyl-4-(tetrahydro-2H-pyran-4-ylamino)-1H-pyrazolo[3,4-b]pyridin-5-yl]methyl}-2,5-pyrazinedicarboxamide]
10 | 0.126 to 1 nM | CCc1nc2c(cnn2CC)c(NC2CCOCC2)c1CNC(=O)c1ccc(-c2ccc(C(=O)NCc3c(CC)nc4c(cnn4CC)c3NC3CCOCC3)cn2)nc1 [Example 34, N,N′-bis{[1,6-diethyl-4-(tetrahydro-2H-pyran-4-ylamino)-1H-pyrazolo[3,4-b]pyridin-5-yl]methyl}-2,2′-bipyridine-5,5′-dicarboxamide]

From US20090326003A1, “PYRAZOLO (3, 4-B) PYRIDINE DERIVATIVES AS PDE4 INHIBITORS” (priority 2006, published 2009)
